Values quoted from earlier work, collected in patent publication US20090017139A1, “Iodine therapy dosing for treating medical conditions” (priority 2007, published 2009).

Legend:
[1] = male rats, 100 days; cited from earlier work
[2] = perchlorate 6 mg i.p., 2 hr predosing; cited from earlier work
[3] = 1.5 to more than 10 g/day for weeks at a time; cited from earlier work
[4] = system: school age children; settings: 11 mg/d, 2.5 years later; cited from earlier work

For `I` [iodide, reference compound], the thyroid size [1] is listed as “Significant increases in thyroid size” and the “reduction of thyroidal uptake by perchlorate” value [2] is listed as “more than 90%”.

In the case of `[I-].[K+]` [potassium iodide], the side effects [3] is given as “few side effects are reported”.

For `[I-].[Na+]` [sodium iodide], the incidence of goiter [4] is listed as 0.2%.
